According to US4237305A, “Substituted phenylacetic acid compounds and process for preparation thereof” (Fujisawa Pharmaceutical Co., Ltd., priority 1976, dated 1980):

Columns and labels:
[1] = tested on: Escherichia coli 114; test: MIC (Minimum Inhibitory Concentration) determined by conventional method, Escherichia coli 114; format: cell-based
Source text: (§1) MIC (Minimum Inhibitory Concentration) value
(§2) determined by conventional method

[2] = tested on: Pseudomonas aeruginosa 10490; test: MIC (Minimum Inhibitory Concentration) determined by conventional method, Pseudomonas aeruginosa 10490; format: cell-based
Source text: as §1, §2

MIC (Minimum Inhibitory Concentration) value [1]: 1.6
MIC (Minimum Inhibitory Concentration) value [2]: 25
SMILES: NC(CCOc1ccc(C(=O)C(=O)NC2CN(C(C(=O)O)c3ccc(O)cc3)C2=O)cc1)C(=O)O (centres unmarked) [d.circle.]
